Source: patent publication US7138361B2, “Herbicidal heterocycles” (E. I. du Pont de Nemours and Company, priority 2000, dated 2006)

Legend:
Assay type in all cases: in vivo
[1] = system: johnsongrass (Sorghum halepense); experiment: Test C preemergence
Procedure, shortened: (§1)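 Each compound was dissolved in a non-phytotoxic solvent system containing a surfactant and sprayed either on freshly planted seeds (preemergence) or on young plants, 2 to 18 cm high (postemergence). Ratings after 12 to 14 greenhouse days ran from 0, no effect, to 100, complete control.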

[2] = system: velvetleaf (Abutilon theophrasti); experiment: Test C preemergence
Procedure, shortened: as §1

[3] = system: lambsquarters (Chenopodium album); experiment: Test C preemergence
Procedure, shortened: as §1

soybean (Glycine max) = experiment: Test C preemergence
Procedure, shortened: as §1

[4] = system: crabgrass (Digitaria sanguinalis); experiment: Test C preemergence
Procedure, shortened: as §1

[5] = system: morningglory (Ipomoea hederacea); experiment: Test C preemergence
Procedure, shortened: as §1

kochia (Kochia scoparia) = experiment: Test C preemergence
Procedure, shortened: as §1

[6] = system: cocklebur (Xanthium strumarium); experiment: Test C preemergence
Procedure, shortened: as §1

Nightshade = experiment: Test C preemergence
[7] = system: woolly cupgrass (Eriochloa villosa); experiment: Test C preemergence
Procedure, shortened: as §1

[8] = system: common ragweed (Ambrosia elatior); experiment: Test C preemergence
Procedure, shortened: as §1

[9] = system: Surinam grass (Brachiaria decumbens); experiment: Test C preemergence
Procedure, shortened: as §1

[10] = system: goosegrass (Eleusine indica); experiment: Test C preemergence
Procedure, shortened: as §1

corn (Zea mays) [11] = experiment: Test C preemergence
Procedure, shortened: as §1

[12] = system: velvetleaf (Abutilon theophrasti); experiment: Test B postemergence
Procedure, shortened: (§2)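 Greenhouse test: chemicals are formulated in a surfactant-containing non-phytotoxic solvent and applied either preemergence to planted seeds or postemergence to plants 2 to 18 cm tall. Response is rated visually versus controls after 13 to 15 days, 0 meaning no effect and 100 complete control.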

[13] = system: lambsquarters (Chenopodium album); experiment: Test B postemergence
Procedure, shortened: as §2

[14] = system: morning glory (Ipomoea hederacea); experiment: Test B postemergence
Procedure, shortened: as §2

[15] = system: barnyardgrass (Echinochloa crus-galli); experiment: Test B postemergence
Procedure, shortened: as §2

[16] = system: Surinam grass (Brachiaria decumbens); experiment: Test B postemergence
Procedure, shortened: as §2

corn (Zea mays) [17] = experiment: Test B postemergence
Procedure, shortened: as §2

[18] = Rate 125 g/ha, scale 0 to 100, 0 no effect, 100 complete control
[19] = preemergence, Rate 62 g/ha, scale 0 to 100
[20] = preemergence, Rate 500 g/ha, visual evaluation after 12 to 14 days
[21] = preemergence, Rate 250 g/ha, scale 0 to 100, 0 no effect, 100 complete control
[22] = Rate 500 g/ha, scale 0 (no effect) to 100 (complete control), 13 to 15 days

Question: For `COc1cc(N2CCC(n3ccc(C(C)(C)C)n3)C2=O)ccc1Br` (stereo not shown) [Compound 141], which “Plant response rating, Johnsongrass” value [1, 18] is on record?
Answer: 0

Question: And the “Plant response rating, Johnsongrass” value [1, 19]?
Answer: 0

Question: And the “Plant response rating (0 to 100), Johnsongrass” value [1, 20]?
Answer: 100

Question: What about the “Plant response rating, Johnsongrass” value [1, 21] of the same compound?
Answer: 0

Question: And the “Plant response rating, Velvetleaf” value [2, 18]?
Answer: 70

Question: What about the “Plant response rating, Velvetleaf” value [2, 19] of the same compound?
Answer: 70

Question: And the “Plant response rating (0 to 100), Velvetleaf” value [2, 20]?
Answer: 100

Question: What about the “Plant response rating, Velvetleaf” value [2, 21] of the same compound?
Answer: 70

Question: What about the “Plant response rating, Lambsquarters” value [3, 18] of the same compound?
Answer: 100

Question: And the “Plant response rating, Lambsquarters” value [3, 19]?
Answer: 100

Question: And the “Plant response rating (0 to 100), Lambsquarters” value [3, 20]?
Answer: 100

Question: And the “Plant response rating, Lambsquarters” value [3, 21]?
Answer: 100

Question: And the “Plant response rating, Soybean” value (soybean (Glycine max); [18])?
Answer: 100

Question: What about the “Plant response rating, Soybean” value (soybean (Glycine max); [19]) of the same compound?
Answer: 70

Question: What about the “Plant response rating (0 to 100), Soybean” value (soybean (Glycine max); [20]) of the same compound?
Answer: 100

Question: And the “Plant response rating, Soybean” value (soybean (Glycine max); [21])?
Answer: 100

Question: What about the “Plant response rating, Crabgrass” value [4, 18] of the same compound?
Answer: 100

Question: And the “Plant response rating, Crabgrass” value [4, 19]?
Answer: 100

Question: What about the “Plant response rating (0 to 100), Crabgrass” value [4, 20] of the same compound?
Answer: 100

Question: What about the “Plant response rating, Crabgrass” value [4, 21] of the same compound?
Answer: 100

Question: What about the “Plant response rating, Morningglory” value [5, 18] of the same compound?
Answer: 100

Question: What about the “Plant response rating, Morningglory” value [5, 19] of the same compound?
Answer: 30

Question: And the “Plant response rating (0 to 100), Morningglory” value [5, 20]?
Answer: 100

Question: And the “Plant response rating, Morningglory” value [5, 21]?
Answer: 100

Question: What about the “Plant response rating, Kochia” value (kochia (Kochia scoparia); [18]) of the same compound?
Answer: 100

Question: And the “Plant response rating, Kochia” value (kochia (Kochia scoparia); [19])?
Answer: 100

Question: What about the “Plant response rating (0 to 100), Kochia” value (kochia (Kochia scoparia); [20]) of the same compound?
Answer: 100

Question: What about the “Plant response rating, Kochia” value (kochia (Kochia scoparia); [21]) of the same compound?
Answer: 100

Question: And the “Plant response rating, Cocklebur” value [6, 18]?
Answer: 60

Question: What about the “Plant response rating, Cocklebur” value [6, 19] of the same compound?
Answer: 0

Question: What about the “Plant response rating (0 to 100), Cocklebur” value [6, 20] of the same compound?
Answer: 100

Question: What about the “Plant response rating, Cocklebur” value [6, 21] of the same compound?
Answer: 70

Question: And the “Plant response rating, Nightshade” value (Nightshade; Rate 62 g/ha, scale 0 to 100)?
Answer: 100

Question: What about the “Plant response rating, Nightshade” value (Nightshade; [18]) of the same compound?
Answer: 100

Question: And the “Plant response rating, Nightshade” value (Nightshade; Rate 250 g/ha, scale 0 to 100, 0 no effect, 100 complete control)?
Answer: 100

Question: What about the “Plant response rating, Cupgrass, Woolly” value [7, 18] of the same compound?
Answer: 100

Question: What about the “Plant response rating, Cupgrass, Woolly” value [7, 19] of the same compound?
Answer: 100

Question: And the “Plant response rating (0 to 100), Cupgrass, Woolly” value [7, 20]?
Answer: 100

Question: And the “Plant response rating, Cupgrass, Woolly” value [7, 21]?
Answer: 100

Question: And the “Plant response rating, Ragweed, Common” value [8, 18]?
Answer: 100

Question: And the “Plant response rating, Ragweed, Common” value [8, 19]?
Answer: 100

Question: And the “Plant response rating (0 to 100), Ragweed, Common” value [8, 20]?
Answer: 100

Question: What about the “Plant response rating, Ragweed, Common” value [8, 21] of the same compound?
Answer: 100

Question: What about the “Plant response rating, Surinam grass” value [9, 18] of the same compound?
Answer: 20

Question: And the “Plant response rating, Surinam grass” value [9, 19]?
Answer: 10

Question: What about the “Plant response rating (0 to 100), Surinam grass” value [9, 20] of the same compound?
Answer: 100

Question: What about the “Plant response rating, Surinam grass” value [9, 21] of the same compound?
Answer: 20

Question: What about the “Plant response rating, Goosegrass” value [10, 18] of the same compound?
Answer: 100

Question: What about the “Plant response rating, Goosegrass” value [10, 19] of the same compound?
Answer: 100

Question: What about the “Plant response rating (0 to 100), Goosegrass” value [10, 20] of the same compound?
Answer: 100

Question: What about the “Plant response rating, Goosegrass” value [10, 21] of the same compound?
Answer: 100

Question: What about the “Plant response rating, Corn” value (corn (Zea mays) [11]; [18]) of the same compound?
Answer: 30

Question: And the “Plant response rating, Corn” value (corn (Zea mays) [11]; [19])?
Answer: 0

Question: What about the “Plant response rating (0 to 100), Corn” value (corn (Zea mays) [11]; [20]) of the same compound?
Answer: 30

Question: And the “Plant response rating, Corn” value (corn (Zea mays) [11]; [21])?
Answer: 30

Question: What about the “Plant response rating, Velvetleaf” value [12, 18] of the same compound?
Answer: 50

Question: And the “Plant response rating, Velvetleaf” value [12, 22]?
Answer: 70

Question: What about the “Plant response rating, Lambsquarters” value [13, 18] of the same compound?
Answer: 90

Question: And the “Plant response rating, Lambsquarters” value [13, 22]?
Answer: 100

Question: What about the “Plant response rating, Morningglory” value [14, 18] of the same compound?
Answer: 0

Question: And the “Plant response rating, Morningglory” value [14, 22]?
Answer: 70

Question: What about the “Plant response rating, Barnyardgrass” value [15, 18] of the same compound?
Answer: 0

Question: What about the “Plant response rating, Barnyardgrass” value [15, 22] of the same compound?
Answer: 80

Question: What about the “Plant response rating, Surinam grass” value [16, 18] of the same compound?
Answer: 0

Question: And the “Plant response rating, Surinam grass” value [16, 22]?
Answer: 0

Question: And the “Plant response rating, Corn” value (corn (Zea mays) [17]; [18])?
Answer: 0

Question: And the “Plant response rating, Corn” value (corn (Zea mays) [17]; [22])?
Answer: 0
